Experimental data as given in patent US20150289512A1, “METHOD FOR PROMOTING PLANT GROWTH” (SUMITOMO CHEMICAL COMPANY, LIMITED, priority 2012, published 2015).

What was measured:
Assay type in all cases: in vivo
[1] = test system: Rice (variety: Nipponbare); assay: Test Example 3: promotion of root growth by hydroponics of rice, 0.1 ppm; settings: Oryza sativa, hydroponic solution containing the test compound at 0.1 ppm, average of 4 or 5 individuals, read-out: Relative value of length of seminal root (%-untreated control plot)
Summary of the method: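 Surface-sterilised Nipponbare seeds were germinated 3 days in the dark at 28 °C in ¼-strength Hoagland solution containing 0.1 ppm compound; DMSO-only solution served as control. Seedlings were then grown 3 days hydroponically at 26 °C, 4,000 lux, 16 h day. Seminal root length was measured and averaged over 4–5 plants.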

Nicotiana benthamiana [2] = assay: Test Example 6: growth promotion under low-temperature stress by hydroponics of Nicotiana benthamiana, 0.1 ppm; settings: 0.1 ppm in medium, low-temperature stress 7 days at 1.5±1.0° C., green leaf area 3 days later, equation (1)
Protocol: Test for Evaluating Growth Promotion Under Low-Temperature Stress by Hydroponics of Nicotiana benthamiana
A DMSO solution, which contained one of the compounds 3, 7, 14, 16, 36, 39, 43, 45, 50, 52, 53, 54, 56, 57, 62, 63, 64, 65, 68, 69, 70, 71, 73, 74, 76, 77, 79, 80, 81, 84, 85, 86 and 87 of the present invention at a concentration of 100 ppm, was prepared. The DMSO solution of the compound of the present invention was added at a volume ratio of 1/1,000 to the Murashige•Scoog medium of a ½-fold concentration for the Murashige•Scoog medium (a medium containing 2.3 g of mixed salts (manufactured by Wako Pure Chemical Industries, Ltd.), 200 mg of Myo-inositol (manufactured by Sigma-Aldrich Co. LLC.), 2 mg of nicotinic acid (manufactured by Wako Pure Chemical Industries, Ltd.), 2 mg of pyridoxine hydrochloride (manufactured by Wako Pure Chemical Industries, Ltd.), 20 mg of thiamine hydrochloride (manufactured by Wako Pure Chemical Industries, Ltd.), 20 g of sucrose (manufactured by Wako Pure Chemical Industries, Ltd.), and 1 g of MES (manufactured by DOJINDO LABORATORIES) per 1 L of water and having pH adjusted to 5.8), thereby preparing a medium containing the compound of the present invention at a concentration of 0.1 ppm.
Seeds of Nicotiana benthamiana were seeded in the 5 μL of the medium and cultured overnight at 22° C. Thereafter, 45 μL of the medium containing the compound of the present invention at a concentration of 0.1 ppm was added thereto, and the seeds are cultivated for 7 days at 22° C., an illuminance of 4,000 lux, and a day length of 16 hours, and the nursery plants raised from the Nicotiana benthamiana were treated with the compound. Moreover, instead of the above medium a test plot, which was obtained by performing the same treatment by using a medium prepared by adding DMSO to the Murashige•Scoog medium of ½-fold concentration at a volume ratio of 1/1,000, was used as a control plot not treated with the compound.
The nursery plants of the Nicotiana benthamiana treated with the compound were subjected to low-temperature treatment by being cultivated for 7 days at 1.5±1.0° C., an illuminance of 2,000 lux, and a day length of 16 hours.
The nursery plants of the Nicotiana benthamiana having undergone the low-temperature stress treatment were cultivated for 3 days at 22° C., an illuminance of 4,000 lux, and a day length of 16 hours. Thereafter, the area of green leaf was quantified by Scanalyzer HTS (manufactured by LemnaTec GmbH). Moreover, the value of the control plot not treated with the compound that had not yet been subjected to the low-temperature stress treatment was measured in the same manner. A value of a relative leaf area was calculated based on the following equation (1), and if the value of a relative leaf area was 5 or greater, the compound was evaluated to have a mitigating effect. As a result of the evaluation, it was confirmed that when the plant was treated with one of the compounds 3, 7, 14, 16, 36, 39, 43, 45, 50, 52, 53, 54, 56, 57, 62, 63, 64, 65, 68, 69, 70, 71, 73, 74, 76, 77, 79, 80, 81, 84, 85, 86 and 87 of the present invention at 0.1 ppm, the value of a relative leaf area was 5 or greater, compared to the area of green leaf of the control plot not treated with compound. Accordingly, it was confirmed that the treatment using the compound of the present invention brings about a growth promotion effect.
Relative leaf area=100*(a green area of a plot treated with the compound of the present invention−a green area of a control plot not treated with the compound of the present invention)/(a green area of a control plot not treated with the compound of the present invention that has not yet been subjected to low-temperature stress treatment−green area of a control plot not treated with the compound of the present invention) Equation (1): […]

[3] = test system: Corn seeds (variety: Pioneer 120 31P41); assay: Test Example 14: growth promotion under low-temperature stress by soil drench treatment of corn; settings: Zea mays, 120 h, soil drench 20 ml, low-temperature stress 5 days at 2.5° C., health score 0-5, average of 4 individuals, read-out: Relative value of score (%- untreated control plot); for change in vivo at 1 ppm: concentration tested 1 ppm; for change in vivo at 0.3 ppm: concentration tested 0.3 ppm; for change in vivo at 10 ppm: concentration tested 10 ppm
Protocol: Test for Evaluating Growth Promotion Under Low-Temperature Stress by Soil Drench Treatment of Corn
Corn seeds (variety: Pioneer 120 31P41) were seeded in a culture soil (Aisai) in a plastic pot (φ55 mm×height of 58 mm), and cultivated for 7 days at 20-25° C., an illuminance of about 5,000 lux, and a day length of 16 hours.
A DMSO solution, which contained one of the compounds 1 to 9, 16, 17, 20, 23, 24, 28 to 32, 34, 45, 48, 50, 82 and 85 of the present invention at a concentration of 1,000-fold concentration of each test concentration, was prepared, and then diluted with distilled water to obtain each test solution. After that, 20 ml of the obtained test solution was used to perform soil drench treatment on the foot of the test plants. The test plants were cultivated for 2 days under the conditions of a temperature of 27° C., a humidity of 40-80%, an illuminance of about 5,000 lux, and a day length of 16 hours. This was used as a test plot treated with the compound. A plot having undergone the soil drench treatment with 20 ml of a 0.1% DMSO aqueous solution instead of the above DMSO solution containing the compound was used as an untreated control plot.
The plants having undergone the soil drench treatment were cultivated for 5 days under the conditions of a temperature of 2.5° C., a humidity of 40-80%, an illuminance of about 5,000 lux, and a day length of 16 hours, thereby exposing to low-temperature stress. After the exposure to the low-temperature stress, the plants were cultivated for 4 days under the conditions of a temperature of 27° C., a humidity of 40-80%, an illuminance of about 5,000 lux, and a day length of 16 hours.
After the cultivation, the health of each plant was scored according to the following evaluation index.
5: 4 or more leaves in which ⅔ or more of the area was healthy
4: 3 leaves in which ⅔ or more of the area was healthy
3: 2 leaves in which ⅔ or more of the area was healthy
2: 1 leaf in which ⅔ or more of the area was healthy
1: No leaf in which ⅔ or more of the area was healthy
An average of the scores of the health of 4 individuals was determined.

[4] = test system: Rice (variety: Nipponbare); assay: Test Example 1: promotion of root growth by hydroponics of rice, 10 ppm; settings: Oryza sativa, hydroponic solution containing the test compound at 10 ppm, average of 4 or 5 individuals, read-out: Relative value of length of seminal root (%-untreated control plot)
Summary of the method: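 Surface-sterilised seeds germinated 3 days in the dark at 28° C in hydroponic solution with compound at 10 ppm, then grown 3 days hydroponically with compound at 10 ppm (26° C, 4,000 lux, 16 h day, 50% humidity). Seminal root length measured by image analysis, averaged over 4 or 5 plants per plot.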

Nicotiana benthamiana [5] = assay: Test Example 5: growth promotion under low-temperature stress by hydroponics of Nicotiana benthamiana, 1 ppm; settings: 1 ppm in medium, low-temperature stress 7 days at 1.5±1.0° C., green leaf area 3 days later, equation (1)
Summary of the method: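 Seeds were grown in half-strength Murashige–Skoog medium (pH 5.8) containing 1 ppm compound for 7 days at 22 °C, then chilled 7 days at 1.5±1.0 °C and recovered 3 days at 22 °C. Green leaf area was imaged. Relative leaf area = 100×(treated − untreated)/(unstressed untreated − stressed untreated).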

SMILES | change in vivo at 0.1 ppm [1] | relative leaf area (% of untreated control) at 0.1 ppm (Nicotiana benthamiana [2]) | change in vivo at 1 ppm [3] | change in vivo at 10 ppm [4] | relative leaf area (% of untreated control) at 1 ppm (Nicotiana benthamiana [5]) | change in vivo at 0.3 ppm [3] | change in vivo at 10 ppm [3]
COC(=O)c1nc2ccccc2o1 [Compound 16, methyl benzoxazole-2-carboxylate] | > 5% | ≥ 5% | > 5% |  |  |  | 
COc1ccc(NC(=O)c2cc3cc(C(F)(F)F)ccc3o2)c(OC)c1 [Compound 5, N-(2,4-dimethoxyphenyl)-5-trifluoromethylbenzofuran-2-carboxamide] |  |  |  | > 5% | ≥ 5% | > 5% | 
O=C(O)c1nc2cc(C(F)(F)F)ccc2[nH]1 [Compound 20, 5-(trifluoromethyl)-benzimidazole-2-carboxylic acid] | > 5% |  |  |  | ≥ 5% | > 5% | 
O=C(O)c1cc2cc(C(F)(F)F)ccc2o1 [Compound 2, 5-trifluoromethylbenzofuran-2-carboxylic acid] | > 5% |  |  |  | ≥ 5% |  | > 5%
O=C(O)c1cc2cc(C(F)(F)F)ccc2[nH]1 [Compound 7, 5-trifluoromethylindole-2-carboxylic acid] | > 5% | ≥ 5% | > 5% |  |  |  | 
CCOC(=O)c1cc2cc(C(F)(F)F)ccc2o1 [Compound 4, ethyl 5-trifluorometethylbenzofuran-2-carboxylate] |  |  |  | > 5% | ≥ 5% |  | > 5%
